The supplement of paper PMC10307832

Columns and labels:
Assay in all cases: relative viability (nuclei count vs DMSO), 5 days (fraction); higher = more cells survive
[1] = compound: Cn1cc(-c2cnc3ccc4ccc(CS(=O)(=O)NCc5ccccn5)cc4c(=O)c3c2)cn1 [MK-8033] + CC(=O)c1c(C)c2cnc(Nc3ccc(N4CCNCC4)cn3)nc2n(C2CCCC2)c1=O [Palbociclib] (partner 0.5 µM)
Method in brief: (§1)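 Relative viability is defined as nuclei in treated wells over nuclei in vehicle wells. Duplicate plates were run and medians reported. Lung cancer cell lines in 1536-well plates were dosed by pin tool one day after seeding, with one drug or with a fixed anchor-drug dose plus five library-drug doses (not always all listed) in √10 steps, and nuclei were counted after 5 days.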

[2] = compound: CC[C@@H](C)CNCC(=O)N1CCC2=C([C@@H]1COC3=CC=CC(=C3)C)C=CS2 [RU-SKI 43] + CS(=O)(=O)CCNCc1ccc(-c2ccc3ncnc(Nc4ccc(OCc5cccc(F)c5)c(Cl)c4)c3c2)o1 [Lapatinib] (partner 2 µM)
Method in brief: as §1

[3] = compound: Cn1cc(-c2cnc3ccc4ccc(CS(=O)(=O)NCc5ccccn5)cc4c(=O)c3c2)cn1 [MK-8033] + CC(=O)Nc1cccc(-n2c(=O)n(C3CC3)c(=O)c3c(Nc4ccc(I)cc4F)n(C)c(=O)c(C)c32)c1 [Trametinib] (partner 0.02 µM)
Method in brief: as §1

[4] = compound: Cn1cc(-c2cnc3ccc4ccc(CS(=O)(=O)NCc5ccccn5)cc4c(=O)c3c2)cn1 [MK-8033] + C[C@@H](Oc1cc(-c2cnn(C3CCNCC3)c2)cnc1N)c1c(Cl)ccc(F)c1Cl [Crizotinib] (partner 1 µM)
Method in brief: as §1

Row | Cell Line | relative viability ([1]; first compound 0.02 µM) | relative viability ([1]; first compound 0.06325 µM) | relative viability ([1]; first compound 0.2 µM) | relative viability ([1]; first compound 0.6325 µM) | relative viability ([1]; first compound 2 µM) | relative viability ([2]; first compound 0.1 µM) | relative viability ([2]; first compound 0.3162 µM) | relative viability ([2]; first compound 1 µM) | relative viability ([2]; first compound 3.162 µM) | relative viability ([2]; first compound 10 µM) | relative viability ([3]; first compound 0.02 µM) | relative viability ([3]; first compound 0.06325 µM) | relative viability ([3]; first compound 0.2 µM) | relative viability ([3]; first compound 0.6325 µM) | relative viability ([3]; first compound 2 µM) | relative viability ([4]; first compound 0.02 µM) | relative viability ([4]; first compound 0.2 µM) | relative viability ([4]; first compound 0.6325 µM) | relative viability ([4]; first compound 2 µM) | relative viability ([4]; first compound 0.06325 µM)
1 | LOU-NH91 | 0.495 | 0.523 | 0.512 | 0.531 | 0.53 | 0.796 | 0.685 | 0.815 | 0.749 | 0.754 | 0.761 | 0.73 | 0.756 | 0.789 | 0.792 | 0.724 | 0.715 | 0.732 | 0.75 | –
2 | NCI-H650 | 0.346 | 0.316 | 0.324 | 0.316 | 0.307 | 0.969 | 0.837 | 1.25 | – | 0.914 | 1.06 | 1.02 | 0.973 | 0.939 | 0.884 | 0.648 | 1 | 0.778 | 0.712 | 0.753
3 | NCI-H2023 | 0.39 | 0.279 | 0.236 | 0.214 | 0.174 | 0.773 | 0.808 | 1.05 | 0.849 | 0.726 | 0.552 | 0.511 | 0.453 | 0.475 | 0.366 | 0.674 | 0.554 | 0.554 | 0.586 | 0.559
4 | NCI-H1563 | – | – | – | – | – | 0.871 | 0.874 | 0.879 | 0.913 | 0.765 | – | – | – | – | – | 0.918 | 0.773 | 0.93 | 0.812 | 0.813
5 | LCLC-103H | 0.514 | 0.51 | 0.47 | 0.295 | 0.491 | – | – | – | – | – | 0.637 | 0.705 | 0.673 | 0.672 | 0.696 | 1.02 | 0.99 | 1.06 | 1.04 | 0.926
6 | HCC-15 | 0.748 | 0.625 | 0.722 | 0.699 | 0.738 | 0.906 | 1.16 | 1.04 | 0.787 | 0.717 | 0.387 | 0.369 | 0.322 | 0.351 | 0.368 | 0.778 | 0.762 | 0.816 | 0.808 | 0.796
7 | NCI-H838 | 0.213 | 0.207 | 0.217 | 0.213 | 0.22 | 0.905 | 0.945 | 1.12 | 1.17 | 1.01 | 0.488 | 0.506 | 0.534 | 0.525 | 0.51 | 0.807 | 0.884 | 0.804 | 0.787 | 0.757
8 | NCI-H2009 | 0.251 | 0.23 | 0.249 | 0.214 | 0.304 | 0.899 | 0.837 | 0.901 | 0.964 | 0.905 | 0.282 | 0.255 | 0.215 | 0.291 | 0.238 | 1.08 | 0.579 | 1.11 | 1.03 | 1.07
9 | NCI-H2228 | 0.815 | 0.729 | 0.807 | 0.621 | 0.82 | 1.05 | 1.3 | 1.45 | 1.29 | 0.891 | 0.278 | 0.403 | 0.435 | 0.341 | 0.582 | 0.373 | 0.508 | 0.387 | 0.362 | 0.372
10 | NCI-H460 | 0.162 | 0.147 | 0.103 | 0.177 | 0.172 | 0.993 | 1.33 | 1.55 | 1.25 | 1.01 | 0.116 | 0.0888 | 0.0918 | 0.155 | 0.0855 | 0.949 | 0.879 | 0.822 | 0.844 | 0.793
11 | NCI-H522 | 0.968 | 0.96 | 1 | 0.968 | 1.18 | – | – | – | – | – | 0.72 | 0.701 | 0.669 | 0.657 | 0.766 | – | – | – | – | –
12 | NCI-H1703 | – | – | – | – | – | – | 1.86 | 1.11 | 1.16 | 0.637 | – | – | – | – | – | 0.583 | 0.549 | 0.601 | 0.715 | 0.576
13 | NCI-H1793 | 0.263 | – | 0.274 | 0.288 | 0.291 | 0.69 | 0.644 | 0.594 | 0.673 | 0.697 | 0.425 | – | 0.362 | 0.447 | 0.361 | – | – | – | – | –
14 | NCI-H596 | – | – | – | – | – | 1.09 | 1.06 | 0.997 | 1.19 | 1.14 | 0.683 | 0.916 | 0.733 | 0.837 | 0.877 | 0.913 | 0.921 | 0.991 | 1.01 | 0.941
15 | NCI-H1648 | 0.243 | – | 0.296 | 0.299 | 0.258 | – | – | – | – | – | 0.499 | – | 0.408 | 0.499 | 0.432 | – | – | – | – | –
16 | NCI-H1299 | – | – | – | – | – | 0.965 | 1.03 | 1.05 | 0.941 | 0.95 | – | – | – | – | – | 0.956 | 0.92 | 0.946 | 0.971 | 0.925
17 | IA-LM | – | – | – | – | – | 0.717 | 0.956 | 1.02 | 0.79 | 0.731 | – | – | – | – | – | 0.739 | 0.948 | 0.667 | 0.899 | 0.667
18 | ABC-1 | 0.664 | 0.733 | 0.591 | 0.724 | 0.646 | 1.23 | 1.42 | 1.12 | 1.18 | 1.24 | – | – | – | – | – | 1.06 | 1.06 | 0.996 | 1.04 | 1.14
19 | SW 900 | 0.518 | 0.536 | 0.493 | 0.519 | 0.495 | – | – | – | – | – | 0.762 | 0.583 | 0.612 | 0.936 | 0.848 | – | – | – | – | –
20 | NCI-H2342 | 0.487 | 0.548 | 0.623 | 0.492 | 0.526 | – | – | – | – | – | 0.83 | 0.773 | 0.827 | 0.999 | 0.83 | – | – | – | – | –
21 | ChaGo-K-1 | 0.981 | 0.937 | 0.872 | 0.974 | 0.75 | – | – | – | – | – | 0.877 | 0.717 | 0.802 | 0.886 | 0.729 | 1.11 | 1.11 | 1.1 | 0.726 | 1.02
22 | A549 | – | – | – | – | – | 0.95 | 1.13 | 1.09 | 0.908 | 0.759 | – | – | – | – | – | 0.719 | 0.703 | 0.848 | 0.677 | 0.713
